Assay results reported in patent publication US6447997B1, “Gene coding for GADD153 as a clinical diagnostic and prognostic in cancer therapy” (Research Development Foundation, priority 1997, dated 2002).

Tested on: GADD153 mRNA
Assay: Change in GADD153 mRNA in tumor biopsies of head and neck cancer patients after cDDP-based treatment
Type: in vivo, human
Conditions: 24 h after start of first course
Method: The present inventors have also discovered that the prognostic method for clinical response by a tumor to a chemotherapeutic agent can accurately predict a corresponding therapeutic response by a patient even though there exist several sources for potential variation. The relationship between the change in GADD153 mRNA level at 24 h after the start of the first course of treatment with cDDP or cDDP plus radiation therapy and subsequent tumor clinical response to this therapy in 32 patients with stage IV head and neck cancer was examined.
Thirty-two patients with previously untreated stage IV head and neck cancer were treated at the UCSD Cancer Center on a phase I/II experimental protocol. All patients had been considered to have unresectable tumors. All patients received i.a. cDDP (150-200 mg/M^2) and i.v. sodium thiosulfate infusion concurrently. The details of this treatment program have been published elsewhere by the present inventors (17,18), which description is specifically incorporated herein by reference. cDDP was dissolved in 400 ml of 0.9% saline and infused over 3-5 minutes through a microcatheter placed angiographically to selectively encompass the dominant blood supply of the targeted tumor. Simultaneous with the cDDP infusion, sodium thiosulfate was infused i.v. at a dose of 9 g/m^2 dissolved in 300 ml of distilled water over 3 minutes, followed by 12 g/m^2 dissolved in one liter of distilled water over 6 h by continuous infusion to prevent severe nephrotoxicity. Treatment was repeated weekly for a total of 4 doses. […] Tumor response was assessed at 2 months using criteria based on physical examination, repeat computed tomography/magnetic resonance imaging studies, and repeat endoscopy and biopsy. […]
GADD153 message levels were quantified using a modification of the technique reported by Horikoshi et al (20). […] PCR products were separated on a 8 M (6%) acrylamide gel and analyzed using a Molecular Imaging System (BioRad, Hercules, Calif.). […]

[NH2][Pt]([NH2])([Cl])[Cl] [cDDP, cisplatin]
magnitude of increase, above baseline, in GADD153 mRNA, mean (SD) (CR group (17 patients)): 3.8±2.2 fold | magnitude of increase, above baseline, in GADD153 mRNA, mean (SD) (NR group (7 patients with tumor progression)): 0.8±0.5 fold | magnitude of increase, above baseline, in GADD153 mRNA, mean (SD) (PR group, all 8 patients): 1.6±0.9 fold
